Assays:
Experiment in all cases: relative viability (nuclei count vs DMSO), 5 days (fraction); higher = more cells survive
201T = system: 201T
In short: (§1)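 Five library-drug doses in √10 steps were combined with a fixed anchor-drug dose, or a single drug was given alone, by pin tool to lung cancer cell lines in 1536-well plates the day after seeding. Nuclei were stained and counted after 5 days. Relative viability is the nuclei count in treated wells over that in vehicle wells, taken as the median of duplicate plates.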

COR-L23 = system: COR-L23
In short: as §1

EPLC-272H = system: EPLC-272H
In short: as §1

H3255 = system: H3255
In short: as §1

HCC-15 = system: HCC-15
In short: as §1

LOU-NH91 = system: LOU-NH91
In short: as §1

NCI-H1563 = system: NCI-H1563
In short: as §1

NCI-H1650 = system: NCI-H1650
In short: as §1

NCI-H1734 = system: NCI-H1734
In short: as §1

NCI-H2023 = system: NCI-H2023
In short: as §1

NCI-H2170 = system: NCI-H2170
In short: as §1

NCI-H2347 = system: NCI-H2347
In short: as §1

NCI-H2405 = system: NCI-H2405
In short: as §1

NCI-H3122 = system: NCI-H3122
In short: as §1

NCI-H322M = system: NCI-H322M
In short: as §1

NCI-H441 = system: NCI-H441
In short: as §1

NCI-H520 = system: NCI-H520
In short: as §1

NCI-H647 = system: NCI-H647
In short: as §1

PC-14 = system: PC-14
In short: as §1

UMC-11 = system: UMC-11
In short: as §1

Cc1sc2c(c1C)C(c1ccc(Cl)cc1)=N[C@@H](CC(=O)OC(C)(C)C)c1nnc(C)n1-2 [JQ1] + C[C@@H](Oc1cc(-c2cnn(C3CCNCC3)c2)cnc1N)c1c(Cl)ccc(F)c1Cl [Crizotinib] (partner 1 µM) showed a relative viability (201T; first compound 0.04 µM) of 1.05, a relative viability (201T; first compound 0.1265 µM) of 0.882 and a relative viability (201T; first compound 0.4 µM) of 0.93. For the same compound, the relative viability (201T; first compound 1.265 µM) was 0.73, the relative viability (201T; first compound 4 µM) was 0.602 and the relative viability (COR-L23; first compound 0.04 µM) was 0.608. It also gave a relative viability (COR-L23; first compound 0.1265 µM) of 0.381, a relative viability (COR-L23; first compound 0.4 µM) of 0.46 and a relative viability (COR-L23; first compound 1.265 µM) of 0.248. The relative viability (COR-L23; first compound 4 µM) was 0.12, the relative viability (EPLC-272H; first compound 0.04 µM) was 0.904 and the relative viability (EPLC-272H; first compound 0.1265 µM) was 0.759. For the same compound, the relative viability (EPLC-272H; first compound 0.4 µM) was 0.885, the relative viability (EPLC-272H; first compound 1.265 µM) was 0.364 and the relative viability (EPLC-272H; first compound 4 µM) was 0.37. The relative viability (H3255; first compound 0.04 µM) was 0.828, the relative viability (H3255; first compound 0.1265 µM) was 0.715 and the relative viability (H3255; first compound 0.4 µM) was 0.741. The relative viability (H3255; first compound 1.265 µM) was 0.316, the relative viability (H3255; first compound 4 µM) was 0.221 and the relative viability (HCC-15; first compound 0.04 µM) was 0.762. It also gave a relative viability (HCC-15; first compound 0.4 µM) of 0.75, a relative viability (HCC-15; first compound 1.265 µM) of 0.544 and a relative viability (HCC-15; first compound 4 µM) of 0.441. The relative viability (LOU-NH91; first compound 0.04 µM) was 0.719, the relative viability (LOU-NH91; first compound 0.1265 µM) was 0.693 and the relative viability (LOU-NH91; first compound 0.4 µM) was 0.531. It also gave a relative viability (LOU-NH91; first compound 1.265 µM) of 0.53, a relative viability (LOU-NH91; first compound 4 µM) of 0.419 and a relative viability (NCI-H1563; first compound 0.04 µM) of 0.839. For the same compound, the relative viability (NCI-H1563; first compound 0.1265 µM) was 0.764, the relative viability (NCI-H1563; first compound 0.4 µM) was 0.881 and the relative viability (NCI-H1563; first compound 1.265 µM) was 0.631. The relative viability (NCI-H1563; first compound 4 µM) was 0.615, the relative viability (NCI-H1650; first compound 0.04 µM) was 0.948 and the relative viability (NCI-H1650; first compound 0.1265 µM) was 0.609. It also gave a relative viability (NCI-H1650; first compound 0.4 µM) of 0.735, a relative viability (NCI-H1650; first compound 1.265 µM) of 0.126 and a relative viability (NCI-H1650; first compound 4 µM) of 0.141. The relative viability (NCI-H1734; first compound 0.04 µM) was 0.696, the relative viability (NCI-H1734; first compound 0.1265 µM) was 0.659 and the relative viability (NCI-H1734; first compound 0.4 µM) was 0.569. It also gave a relative viability (NCI-H1734; first compound 1.265 µM) of 0.449, a relative viability (NCI-H1734; first compound 4 µM) of 0.331 and a relative viability (NCI-H2023; first compound 0.04 µM) of 0.544. The relative viability (NCI-H2023; first compound 0.1265 µM) was 0.543, the relative viability (NCI-H2023; first compound 0.4 µM) was 0.485 and the relative viability (NCI-H2023; first compound 1.265 µM) was 0.227. The relative viability (NCI-H2023; first compound 4 µM) was 0.158, the relative viability (NCI-H2170; first compound 0.04 µM) was 0.997 and the relative viability (NCI-H2170; first compound 0.1265 µM) was 1.12. For the same compound, the relative viability (NCI-H2170; first compound 0.4 µM) was 0.72, the relative viability (NCI-H2170; first compound 1.265 µM) was 0.599 and the relative viability (NCI-H2170; first compound 4 µM) was 0.517. For the same compound, the relative viability (NCI-H2347; first compound 0.04 µM) was 0.673, the relative viability (NCI-H2347; first compound 0.1265 µM) was 0.549 and the relative viability (NCI-H2347; first compound 0.4 µM) was 0.646. It also gave a relative viability (NCI-H2347; first compound 1.265 µM) of 0.555, a relative viability (NCI-H2347; first compound 4 µM) of 0.431 and a relative viability (NCI-H2405; first compound 0.04 µM) of 0.829. For the same compound, the relative viability (NCI-H2405; first compound 0.1265 µM) was 0.711, the relative viability (NCI-H2405; first compound 0.4 µM) was 0.749 and the relative viability (NCI-H2405; first compound 1.265 µM) was 0.555. The relative viability (NCI-H2405; first compound 4 µM) was 0.395, the relative viability (NCI-H3122; first compound 0.04 µM) was 0.312 and the relative viability (NCI-H3122; first compound 0.1265 µM) was 0.315. It also gave a relative viability (NCI-H3122; first compound 0.4 µM) of 0.354, a relative viability (NCI-H3122; first compound 1.265 µM) of 0.323 and a relative viability (NCI-H3122; first compound 4 µM) of 0.413. It also gave a relative viability (NCI-H322M; first compound 0.04 µM) of 0.83, a relative viability (NCI-H322M; first compound 0.1265 µM) of 0.839 and a relative viability (NCI-H322M; first compound 0.4 µM) of 0.856. For the same compound, the relative viability (NCI-H322M; first compound 1.265 µM) was 0.533, the relative viability (NCI-H322M; first compound 4 µM) was 0.458 and the relative viability (NCI-H441; first compound 0.04 µM) was 0.813. For the same compound, the relative viability (NCI-H441; first compound 0.1265 µM) was 0.616, the relative viability (NCI-H441; first compound 0.4 µM) was 0.713 and the relative viability (NCI-H441; first compound 1.265 µM) was 0.297. For the same compound, the relative viability (NCI-H441; first compound 4 µM) was 0.221, the relative viability (NCI-H520; first compound 0.04 µM) was 0.97 and the relative viability (NCI-H520; first compound 0.1265 µM) was 0.997. It also gave a relative viability (NCI-H520; first compound 0.4 µM) of 0.578, a relative viability (NCI-H520; first compound 1.265 µM) of 0.368 and a relative viability (NCI-H520; first compound 4 µM) of 0.166. It also gave a relative viability (NCI-H647; first compound 0.04 µM) of 1.03, a relative viability (NCI-H647; first compound 0.1265 µM) of 0.486 and a relative viability (NCI-H647; first compound 0.4 µM) of 0.276. It also gave a relative viability (NCI-H647; first compound 1.265 µM) of 0.0835, a relative viability (NCI-H647; first compound 4 µM) of 0.0629 and a relative viability (PC-14; first compound 0.04 µM) of 0.907. For the same compound, the relative viability (PC-14; first compound 0.1265 µM) was 0.781, the relative viability (PC-14; first compound 0.4 µM) was 0.776 and the relative viability (PC-14; first compound 1.265 µM) was 0.611. For the same compound, the relative viability (PC-14; first compound 4 µM) was 0.426, the relative viability (UMC-11; first compound 0.04 µM) was 0.501 and the relative viability (UMC-11; first compound 0.1265 µM) was 0.659. It also gave a relative viability (UMC-11; first compound 0.4 µM) of 0.345, a relative viability (UMC-11; first compound 1.265 µM) of 0.0933 and a relative viability (UMC-11; first compound 4 µM) of 0.0983.

Reference: the supplement of paper PMC10307832
